Test [1] has as its target T1, human adenosine A2A receptor (Homo sapiens, UniProt P29274).
T1 construct: host or cells: HEK-293 cells (membranes)
Description: Adenosine A2A receptor binding test (3H-CGS21680 binding). Conditions: compound at 100 nmol/L; Table 2, measured by Ricerca Biosciences, LLC; read-out: Inhibitory rate for human adenosine A2A receptor binding (3H-CGS21680 binding). The source says:
Specifically, for example, human recombinant receptors are expressed in HEK-293 cells.
The inhibitory rate can be calculated by the following equation.

Test [2] addresses T2, human adenosine A1 receptor (Homo sapiens, UniProt P30542).
T2 construct: host or cells: CHO cells (membranes)
T2 sequence (P30542 1-326): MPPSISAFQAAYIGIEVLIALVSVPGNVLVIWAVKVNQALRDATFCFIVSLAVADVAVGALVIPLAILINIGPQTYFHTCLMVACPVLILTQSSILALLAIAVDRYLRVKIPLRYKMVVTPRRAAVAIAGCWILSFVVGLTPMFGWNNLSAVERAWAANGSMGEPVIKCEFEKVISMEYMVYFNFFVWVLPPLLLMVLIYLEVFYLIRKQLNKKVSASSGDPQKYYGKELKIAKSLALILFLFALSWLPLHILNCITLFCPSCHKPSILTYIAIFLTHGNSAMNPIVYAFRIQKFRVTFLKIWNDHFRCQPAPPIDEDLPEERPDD
As to the kind of experiment: Adenosine A1 receptor binding test (3H-DPCPX binding). Conditions: compound at 100 nmol/L; Table 2, measured by Ricerca Biosciences, LLC; read-out: Inhibitory rate for human adenosine A1 receptor binding (3H-DPCPX binding). The source says: Specifically, for example, human A1 receptor-expressing CHO cell membranes are used, and, as the labeled compound, for example, tritium-labeled DPCPX (1,3-dipropyl-8-cyclopentylxanthine) is used. The amount of non-specific binding can be determined by measuring the ^3H-DPCPX bound radioactivity in the presence of, for example, 100 μmol/L of R(−)-PIA((−)-N^6-2-phenylisopropyl adenosine).

The record followed here is US10407440B2, “Therapeutic agent for motor disorders” (KYOWA HAKKO KIRIN CO., LTD., priority 2009, dated 2019).

T1 sequence (P29274 whole entry): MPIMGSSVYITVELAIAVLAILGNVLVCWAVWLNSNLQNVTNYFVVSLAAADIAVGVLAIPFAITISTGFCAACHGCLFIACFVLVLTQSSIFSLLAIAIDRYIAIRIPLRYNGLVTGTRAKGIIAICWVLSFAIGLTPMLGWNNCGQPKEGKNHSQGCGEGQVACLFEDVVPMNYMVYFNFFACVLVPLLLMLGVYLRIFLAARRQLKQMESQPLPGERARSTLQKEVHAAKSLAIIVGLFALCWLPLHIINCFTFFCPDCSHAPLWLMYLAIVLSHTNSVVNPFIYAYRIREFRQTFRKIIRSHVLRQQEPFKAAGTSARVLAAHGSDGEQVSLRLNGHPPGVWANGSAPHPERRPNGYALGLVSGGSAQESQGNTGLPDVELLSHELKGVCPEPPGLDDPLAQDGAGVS

On to `O=C(Nc1nc(-c2ccoc2)c(C(=O)C2CCOCC2)s1)c1cnc2c(c1)CCC2` [(IAA), N-[4-(3-Furyl)-5-(tetrahydropyran-4-carbonyl)thiazol-2-yl]-6,7-dihydro-5H-cyclopenta[b]pyridine-3-carboxamide], for which the inhibition at 0.1 µM in test [1] is 98%; in test [2], 9%.

With `C=Cc1ccc(C(=O)Nc2nc(-c3ccco3)c(C(=O)C3CCOCC3)s2)cn1` [(IE), N-[4-(2-Furyl)-5-(tetrahydropyran-4-carbonyl)thiazol-2-yl]-6-vinylpyridine-3-carboxamide], the inhibition at 0.1 µM in test [1] was 93%; in test [2], 33%.

`O=C(Cc1cccnc1)Nc1nc(-c2ccco2)c(C(=O)C2CCOCC2)s1` [(IF), N-[4-(2-Furyl)-5-(tetrahydropyran-4-carbonyl)thiazol-2-yl]-2-(pyridin-3-yl)acetamide]: the inhibition at 0.1 µM in test [1] stood at 107%; in test [2], 50%.

As for `O=C(Nc1nc(-c2ccco2)c(C(=O)C2CCOCC2)s1)c1ccc[nH]1` [(IG), N-[4-(2-Furyl)-5-(tetrahydropyran-4-carbonyl)thiazol-2-yl]-1H-pyrrole-2-carboxamide], the values for the inhibition at 0.1 µM in test [1] and in test [2] were 102% and 91%, respectively.

`O=C(Nc1nc(-c2ccco2)c(C(=O)C2CCOCC2)s1)c1cccc2[nH]ccc12` [(IH), N-[4-(2-Furyl)-5-(tetrahydropyran-4-carbonyl)thiazol-2-yl]-1H-indole-4-carboxamide]: the inhibition at 0.1 µM in test [1] amounted to 98%; in test [2], 67%.

`O=C(Nc1nc(-c2ccco2)c(C(=O)C2CCOCC2)s1)c1ccnc(CN2CCOCC2)c1` [(II), N-[4-(2-Furyl)-5-(tetrahydropyran-4-carbonyl)thiazol-2-yl]-2-(morpholin-4-ylmethyl)pyridine-4-carboxamide]: the values for the inhibition at 0.1 µM in test [1] and in test [2] were 85% and 19%, respectively.

Consider `COCc1cc(C(=O)Nc2nc(-c3ccco3)c(C(=O)C3CCOCC3)s2)ccn1` [(IJ), N-[4-(2-Furyl)-5-(tetrahydropyran-4-carbonyl)thiazol-2-yl]-2-methoxymethylpyridine-4-carboxamide], for which the inhibition at 0.1 µM came out at 93% in test [1] and 21% in test [2].

As for `CCOCc1cc(C(=O)Nc2nc(-c3ccco3)c(C(=O)C3CCOCC3)s2)ccn1` [(IK), 2-Ethoxymethyl-N-[4-(2-furyl)-5-(tetrahydropyran-4-carbonyl)thiazol-2-yl]pyridine-4-carboxamide], the inhibition at 0.1 µM came out at 92% in test [1] and 24% in test [2].

With `CC(C)OCc1cc(C(=O)Nc2nc(-c3ccco3)c(C(=O)C3CCOCC3)s2)ccn1` [(IL), N-[4-(2-Furyl)-5-(tetrahydropyran-4-carbonyl)thiazol-2-yl]-2-isopropoxymethylpyridine-4-carboxamide], the inhibition at 0.1 µM is 85% in test [1] and 20% in test [2].

For the compound `O=C(Nc1nc(-c2ccco2)c(C(=O)C2CCOCC2)s1)c1cnc2occc2c1` [(IM), N-[4-(2-Furyl)-5-(tetrahydropyran-4-carbonyl)thiazol-2-yl]furo[2,3-b]pyridine-5-carboxamide], the values for the inhibition at 0.1 µM in test [1] and in test [2] were 98% and 47%, respectively.

Regarding `O=C(Cc1ccccn1)Nc1nc(-c2ccco2)c(C(=O)C2CCOCC2)s1` [(IN), N-[4-(2-Furyl)-5-(tetrahydropyran-4-carbonyl)thiazol-2-yl]-2-(pyridin-2-yl)acetamide], the inhibition at 0.1 µM in test [1] was 93%; in test [2], 21%.

For the compound `COc1ccc(C(=O)Nc2nc(-c3ccco3)c(C(=O)C3CCOCC3)s2)cn1` [(IO), N-[4-(2-Furyl)-5-(tetrahydropyran-4-carbonyl)thiazol-2-yl]-6-methoxypyridine-3-carboxamide], the inhibition at 0.1 µM is 97% in test [1] and 56% in test [2].

In the case of `O=C(Nc1nc(-c2ccco2)c(C(=O)C2CCOCC2)s1)c1cnc2ccccc2c1` [(IP), N-[4-(2-Furyl)-5-(tetrahydropyran-4-carbonyl)thiazol-2-yl]quinoline-3-carboxamide], the inhibition at 0.1 µM in test [1] came to 98%; in test [2], 18%.

Take `Cc1cc(C(=O)Nc2nc(-c3ccco3)c(C(=O)C3CCOCC3)s2)cnc1C` [(IQ), N-[4-(2-Furyl)-5-(tetrahydropyran-4-carbonyl)thiazol-2-yl]-5,6-dimethylpyridine-3-carboxamide]: the inhibition at 0.1 µM in test [1] was determined as 100%; in test [2], 18%.

For the compound `CCc1cncc(C(=O)Nc2nc(-c3ccco3)c(C(=O)C3CCOCC3)s2)c1` [(IR), 5-Ethyl-N-[4-(2-furyl)-5-(tetrahydropyran-4-carbonyl)thiazol-2-yl]pyridine-3-carboxamide], the inhibition at 0.1 µM in test [1] was determined as 107%; in test [2] it was 30%.

As to `O=C(Nc1nc(-c2ccco2)c(C(=O)C2CCOCC2)s1)c1cnc2c(c1)COCC2` [(IS), N-[4-(2-Furyl)-5-(tetrahydropyran-4-carbonyl)thiazol-2-yl]-7,8-dihydro-5H-pyrano[4,3-b]pyridine-3-carboxamide], the results for the inhibition at 0.1 µM in test [1] and in test [2] were 90% and 10%, respectively.

For `O=C(Nc1nc(-c2ccco2)c(C(=O)C2CCOCC2)s1)c1cnc2c(c1)CCC2` [(IT), N-[4-(2-Furyl)-5-(tetrahydropyran-4-carbonyl)thiazol-2-yl]-6,7-dihydro-5H-cyclopenta[b]pyridine-3-carboxamide], the inhibition at 0.1 µM in test [1] is 91%; in test [2], 37%.

Take `O=C(Nc1nc(-c2ccco2)c(C(=O)C2CCOCC2)s1)c1cc2ccccc2[nH]1` [(IU), N-[4-(2-Furyl)-5-(tetrahydropyran-4-carbonyl)thiazol-2-yl]-1H-indole-2-carboxamide]: the inhibition at 0.1 µM was 110% in test [1] and 36% in test [2].

As for `CCc1ccc(C(=O)Nc2nc(-c3ccco3)c(C(=O)C3CCOCC3)s2)cn1` [(IV), 6-Ethyl-N-[4-(2-furyl)-5-(tetrahydropyran-4-carbonyl)thiazol-2-yl]pyridine-3-carboxamide], the figures for the inhibition at 0.1 µM in test [1] and in test [2] were 98% and 23%, respectively.

As for `CCCc1ccc(C(=O)Nc2nc(-c3ccco3)c(C(=O)C3CCOCC3)s2)cn1` [(IW), N-[4-(2-Furyl)-5-(tetrahydropyran-4-carbonyl)thiazol-2-yl]-6-propylpyridine-3-carboxamide], the inhibition at 0.1 µM in test [1] was found to be 98%; in test [2], 23%.

Turning to `O=C(Nc1nc(-c2ccco2)c(C(=O)C2CCOCC2)s1)c1cnc2c(c1)CSCC2` [(IX), N-[4-(2-Furyl)-5-(tetrahydropyran-4-carbonyl)thiazol-2-yl]-7,8-dihydro-5H-thiopyrano[4,3-b]pyridine-3-carboxamide], the inhibition at 0.1 µM came out at 101% in test [1] and 18% in test [2].

Regarding `CC(=O)c1cc(C(=O)Nc2nc(-c3ccco3)c(C(=O)C3CCOCC3)s2)cnc1C` [(IY), 5-Acetyl-N-[4-(2-furyl)-5-(tetrahydropyran-4-carbonyl)thiazol-2-yl]-6-methylpyridine-3-carboxamide], the inhibition at 0.1 µM came out at 97% in test [1] and 8% in test [2].

Consider `CCc1cncc(C(=O)Nc2nc(-c3ccoc3)c(C(=O)C3CCOCC3)s2)c1` [(IZ), 5-Ethyl-N-[4-(3-furyl)-5-(tetrahydropyran-4-carbonyl)thiazol-2-yl]pyridine-3-carboxamide], for which the inhibition at 0.1 µM in test [1] turned out to be 102%; in test [2], 21%.
